Measured values taken from PubChem BioAssay (NCI).
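Test compounds were applied to cells in 96-well plates for 48 hours at 5 doses. The concentration for 50% growth inhibition is given as GI50. At the TGI there is no net growth.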

Columns and labels:
Assay in all cases: NCI-60 cell line screen, 48 h
EKVX NSCLC = system: EKVX NSCLC
KM12 colon = system: KM12 colon
IGROV1 ovarian = system: IGROV1 ovarian
CCRF-CEM leukemia = system: CCRF-CEM leukemia
MALME-3M melanoma = system: MALME-3M melanoma
SNB-75 CNS = system: SNB-75 CNS
SF-295 CNS = system: SF-295 CNS
A498 renal = system: A498 renal
NCI-H522 lung = system: NCI-H522 lung
RPMI-8226 leukemia = system: RPMI-8226 leukemia

Row | Structure (SMILES) | GI50 (EKVX NSCLC) [µM] | TGI (EKVX NSCLC) [µM] | GI50 (KM12 colon) [µM] | TGI (KM12 colon) [µM] | GI50 (IGROV1 ovarian) [µM] | TGI (IGROV1 ovarian) [µM] | GI50 (CCRF-CEM leukemia) [µM] | TGI (CCRF-CEM leukemia) [µM] | GI50 (MALME-3M melanoma) [µM] | TGI (MALME-3M melanoma) [µM] | GI50 (SNB-75 CNS) [µM] | TGI (SNB-75 CNS) [µM] | GI50 (SF-295 CNS) [µM] | TGI (SF-295 CNS) [µM] | GI50 (A498 renal) [µM] | TGI (A498 renal) [µM] | GI50 (NCI-H522 lung) [µM] | TGI (NCI-H522 lung) [µM] | GI50 (RPMI-8226 leukemia) [µM] | TGI (RPMI-8226 leukemia) [µM]
1 | COc1ccc(C(=O)c2cc(OC)c(OC)c(OC)c2)cc1/C=C/C(=O)c1ccc(O)cc1 | 4.55 | 19.4 | 2.44 | 7.05 | 9.94 | 34.8 | 0.872 | > 100 | 9.69 | 25.1 | 1.62 | 4.77 | 6.5 | 20.1 | 3.14 | 15.1 | 2.69 | 15.8 | 1.56 | 82.9
2 | N.N.NCCCCN.O=C([O-])CC(=O)[O-].O=C([O-])CC(=O)[O-].[Pt+4].[Pt+4] | > 100 | > 100 | > 100 | > 100 | > 100 | > 100 | 35.6 | > 100 | > 100 | > 100 | > 100 | > 100 | > 100 | > 100 | > 100 | > 100 | 18.2 | 62.5 | > 100 | > 100
3 | O=C1C2c3[nH]c4ccccc4c3C3CCSCC3C2C(=O)N1c1ccccc1 (stereo unspecified) | – | > 100 | – | > 100 | – | > 100 | – | > 100 | – | > 100 | – | 44.7 | – | > 100 | – | > 100 | – | > 100 | – | > 100
4 | COc1ccc(-c2nc3sccn3c2/C=C/C(=O)c2cc(OC)c(OC)c(OC)c2)cc1OC | 3.92 | > 100 | 2.04 | 4.53 | 1.2 | 3.31 | 2.64 | > 100 | 3.33 | 54.1 | 1.99 | 5.43 | 3.08 | 24 | 2.6 | 8.2 | 1.3 | 3.77 | 1.19 | 4.95
5 | COc1ccc2c(CN3CCC(CO)CC3)cc3cc4c(cc3c2c1)OCO4 | 0.415 | 6.29 | 0.28 | 4.34 | 0.305 | 11.6 | – | 0.373 | 0.199 | 0.799 | 0.474 | 2 | 0.241 | 3.29 | 0.211 | 0.554 | 0.135 | 0.363 | 0.256 | 0.919
6 | O=C1C(Cl)=C(Oc2ccccc2)C(=O)c2ccccc21 | 4.77 | 24 | 2.84 | 8.84 | 2.96 | 9.63 | 2.23 | 8.32 | 1.6 | 3.41 | 1.93 | 12.9 | 3.03 | 11.3 | 9.24 | 22.6 | 1.51 | 2.96 | 2.69 | 11.4
7 | O=C(CSc1nc2ccc([N+](=O)[O-])cc2[nH]1)Nc1cccc(C(F)(F)F)c1 | 1.84 | 9.94 | 2.2 | 8.08 | 2.87 | 14.7 | 2.58 | > 60.1 | 1.48 | 6.66 | 1.61 | 7.81 | 1.73 | 5.65 | 0.963 | 3.52 | 1.55 | 9.05 | 1.37 | > 23.6
8 | C=C1C(=O)O[C@H]2[C@H]1CC/C(COC(=O)/C=C/c1cccnc1)=C\CC[C@@]1(C)O[C@@H]21 | 3.28 | 14.3 | 3.47 | 13.2 | 2.07 | 7.86 | 0.338 | 3.73 | 1.69 | 3.63 | 11.3 | 24.1 | 10.6 | 23.1 | 4.11 | 16.3 | 1.33 | 3.48 | 1.9 | 6.15
9 | COc1ccc(/C=C/C(=O)/C=C(/C=C/c2ccc(OC)c(OC)c2)OB(F)F)cc1OC | 1.04 | > 100 | 1.78 | 3.95 | 0.486 | 4.41 | 0.323 | 2.63 | 0.51 | 4.25 | 1.02 | 8.06 | 1.89 | 4.87 | 1.83 | 5.12 | 0.291 | 1.45 | 0.427 | 2.81
10 | COc1c2c(c(OC)c3c(=O)cc(C/C(=N/NC(=O)C[n+]4ccccc4)C(=O)Nc4cc(C)ccc4C)oc13)OCO2 | – | > 100 | – | > 100 | – | > 100 | – | > 100 | – | > 100 | – | > 100 | – | – | – | > 100 | – | > 100 | – | > 100
11 | O=c1oc2ccccc2c(Cl)c1Cl | 11.2 | 27.1 | 3.61 | 13.7 | – | – | 0.595 | 30 | 2.23 | 12.4 | 2.85 | 12.9 | 11.7 | 28.4 | 10.4 | 22.4 | 3.46 | 15.5 | 2.71 | 8.66
